In brackets after ≈: the same amount, converted by molar mass.
How the values were obtained:
[1] = system: Candida krusei ATCC 14243; assay: MIC determination (broth micro-dilution); format: cell-based; details: Pichia kudriavzevii, ATCC14243
Protocol: (§1) Before analysis, compounds 5a–f were dissolved in 96% ethanol in a concentration of 2 mg/ml as stock solutions. Inoculums were prepared with fresh cultures of microbial strains, cultured on tryptic-soy agar or Sabouraud 2% (m/v) dextrose agar for 18 h (48–72 h for fungi) at 30 °C with physiological saline containing approximately […]. Inoculum density (0.5 McFarland units) was adjusted with a bio Mériex (France) densitometer. Minimum inhibitory concentration (MIC) was determined by the twofold micro-dilution method in Mu¨ller–Hinton broth for bacterial strains and RPMI 1640 + 2% m/v dextrose for fungi according to the EUCAST recommendations in a sterile 96-well flat-bottom plastic tissue culture plate. MIC was determined using a linear regression curve after incubation of compounds and reading the optical density at 570 nm using an iEMS microplate reader. […] All tests were performed in triplicate and expressed as the mean.

[2] = system: Candida tropicalis ATCC 750; assay: MIC determination (broth micro-dilution); format: cell-based; details: ATCC750
Protocol: as §1

[3] = system: Candida albicans ATCC 90028; assay: MIC determination (broth micro-dilution); format: cell-based; details: ATCC90028
Protocol: as §1

[4] = system: Aspergillus niger ATCC 16404; assay: MIC determination (broth micro-dilution); format: cell-based; details: ATCC16404
Protocol: as §1

[5] = system: Candida kefyr ATCC 2512; assay: MIC determination (broth micro-dilution); format: cell-based; details: Kluyveromyces marxianus, ATCC2512
Protocol: as §1

[6] = system: Issatchenkia orientalis Kudrjanzev ATCC 6258; assay: MIC determination (broth micro-dilution); format: cell-based; details: Pichia kudriavzevii, ATCC6258
Protocol: as §1

[7] = system: Candida albicans ATCC 10231; assay: MIC determination (broth micro-dilution); format: cell-based; details: ATCC10231
Protocol: as §1

[8] = system: Candida krusei ATCC 14243; assay: Minimum biofilm eradication assay; format: cell-based; details: Pichia kudriavzevii, ATCC14243, 48 h, read-out: MBEC
Protocol: (§2) We tested the susceptibility of different bacterial and yeast strains to compounds 5a–f by determining the minimum biofilm eradication concentration (MBEC). The test was performed in a sterile 96-well flat-bottom plastic tissue culture plate (TPP, Switzerland). Each well was filled with 100 µl of bacterial (10^7 CFUs/ml) or yeast (5 × 10^6 CFUs/ml) suspension. When the possibility of inhibition of yeast biofilm formation was tested, the wells were pre-treated with FBS (250 µl per well). Negative controls contained broth only. Positive controls were performed using standard antibacterial and antifungal drugs gentamycin and amphotericin B, respectively. The plates were covered and incubated aerobically for 24 h (bacteria) or 48 h (yeast) at 37 °C. Following the incubation period, each well was aspirated and washed three times with 250 µl of PBS and vigorously shaken in order to remove all non-adherent bacteria/yeast. The remaining attached cells were fixed with methanol (15 min) and the plates were left to dry overnight. The formed biofilm was stained with crystal violet (1%, 5 min). Excess stain was rinsed by placing the plate under running tap water and the plates were left to dry for 24 h. Adherent cells were resolubilized with acetic acid (33%, v/v). The optical density of each well was measured at 570 nm using a Multiscan plate reader. The MBEC value represents the lowest compound dilution at which microorganisms fail to grow.

[9] = system: Candida tropicalis ATCC 750; assay: Minimum biofilm eradication assay; format: cell-based; details: ATCC750, 48 h, read-out: MBEC
Protocol: as §2

[10] = system: Candida albicans ATCC 90028; assay: Minimum biofilm eradication assay; format: cell-based; details: ATCC90028, 48 h, read-out: MBEC
Protocol: as §2

[11] = system: Candida kefyr ATCC 2512; assay: Minimum biofilm eradication assay; format: cell-based; details: Kluyveromyces marxianus, ATCC2512, 48 h, read-out: MBEC
Protocol: as §2

[12] = system: Candida albicans ATCC 10231; assay: Minimum biofilm eradication assay; format: cell-based; details: ATCC10231, 48 h, read-out: MBEC
Protocol: as §2

[13] = Interaction with 1,1-diphenyl-2-picrylhydrazyl (DPPH); details: 100 μΜ
Protocol: To a solution of DPPH in absolute ethanol, an appropriate volume of the tested compound solution (0.1 mM final concentration) dissolved in DMSO was added. Absorbance was recorded at 517 nm after 20 and 60 min at room temperature (Lambda 20 double beam spectrophotometer, Perkin-Elmer, UK). Experiments were repeated at least in triplicate and the standard deviation of absorbance was less than 10% of the mean[10]. NDGA was used under the same experimental conditions as a reference compound.

[14] = system: Escherichia coli ATCC 10536; assay: MIC determination (broth micro-dilution); format: cell-based; details: ATCC10536
Protocol: as §1

[15] = system: Bacillus cereus ATCC 11778; assay: MIC determination (broth micro-dilution); format: cell-based; details: ATCC11778
Protocol: as §1

[16] = system: Burkholderia caepacia ATCC 25416; assay: MIC determination (broth micro-dilution); format: cell-based; details: ATCC25416
Protocol: as §1

[17] = system: Enterococcus faecalis ATCC 29212; assay: MIC determination (broth micro-dilution); format: cell-based; details: ATCC29212
Protocol: as §1

[18] = system: Staphylococcus aureus ATCC 25923; assay: MIC determination (broth micro-dilution); format: cell-based; details: ATCC25923
Protocol: as §1

[19] = system: Pseudomonas aeruginosa ATCC 27853; assay: MIC determination (broth micro-dilution); format: cell-based; details: ATCC27853
Protocol: as §1

[20] = system: Escherichia coli ATCC 8739; assay: MIC determination (broth micro-dilution); format: cell-based; details: ATCC8739
Protocol: as §1

[21] = system: Enterococcus hyrae ATCC 8043; assay: MIC determination (broth micro-dilution); format: cell-based; details: ATCC8043
Protocol: as §1

[22] = system: Pseudomonas aeruginosa ATCC 9027; assay: MIC determination (broth micro-dilution); format: cell-based; details: ATCC9027
Protocol: as §1

[23] = system: Staphylococcus aureus ATCC 6538; assay: MIC determination (broth micro-dilution); format: cell-based; details: ATCC6538
Protocol: as §1

[24] = system: Candida parapsylosis ATCC 22019; assay: MIC determination (broth micro-dilution); format: cell-based; details: ATCC22019
Protocol: as §1

[25] = system: Kocuria rhizophila ATCC 9341; assay: MIC determination (broth micro-dilution); format: cell-based; details: ATCC9341
Protocol: as §1

[26] = system: Staphylococcus aureus ATCC 25213; assay: MIC determination (broth micro-dilution); format: cell-based; details: ATCC25213
Protocol: as §1

[27] = system: Bacillus subtilis ATCC 6633; assay: MIC determination (broth micro-dilution); format: cell-based; details: ATCC6633
Protocol: as §1

[28] = Inhibition of linoleic acid peroxidation (LP), AAPH-initiated; parameters: tested at 100 µM; details: 100 μΜ, 37 °C
Protocol: To initiate lipid peroxidation, the free radical AAPH was used[10]. The final solution in the UV cuvette consisted of 10 µl sodium linoleate solution (c = 16 mM) and 0.93 ml phosphate buffer pH 7.4 (c = 50 mM). Afterwards, 10 µl of the tested compound solution in DMSO (final concentration 0.1 mM) and 50 µl of AAPH solution (c = 40 mM) were added. The experiment was performed at 37 °C under air. Oxidation of linoleic acid sodium salt was monitored at 234 nm. The assay was repeated at least in triplicate and the standard deviation of absorbance was less than 10% of the mean. Trolox was used under the same experimental conditions as a reference compound.

[29] = system: Escherichia coli ATCC 10536; assay: Minimum biofilm eradication assay; format: cell-based
Protocol: as §2

[30] = system: Enterococcus faecalis ATCC 29212; assay: Minimum biofilm eradication assay; format: cell-based
Protocol: as §2

[31] = system: Pseudomonas aeruginosa ATCC 27853; assay: Minimum biofilm eradication assay; format: cell-based
Protocol: as §2

[32] = system: Escherichia coli ATCC 8739; assay: Minimum biofilm eradication assay; format: cell-based
Protocol: as §2

[33] = system: Pseudomonas aeruginosa ATCC 9027; assay: Minimum biofilm eradication assay; format: cell-based
Protocol: as §2

[34] = system: Staphylococcus aureus ATCC 6538; assay: Minimum biofilm eradication assay; format: cell-based
Protocol: as §2

[35] = system: Candida parapsylosis ATCC 22019; assay: Minimum biofilm eradication assay; format: cell-based
Protocol: as §2

[36] = system: Staphylococcus aureus ATCC 25213; assay: Minimum biofilm eradication assay; format: cell-based
Protocol: as §2

[37] = system: E. coli (both strains); assay: Minimum biofilm eradication assay, E. coli both strains; format: cell-based, Escherichia coli
Protocol: as §2, with “The MBEC value represents the lowest compound dilution at which microorganisms fail to grow.” left out

**Q.** With `C[C@@H]1[C@H](O)[C@@H](C)/C=C/C=C/C=C/C=C/C=C/C=C/C=C/[C@H](O[C@@H]2O[C@H](C)[C@@H](O)[C@H](N)[C@@H]2O)C[C@@H]2O[C@](O)(C[C@@H](O)C[C@@H](O)[C@H](O)CC[C@@H](O)C[C@@H](O)CC(=O)O[C@H]1C)C[C@H](O)[C@H]2C(=O)O` [Amph, amphotericin B, reference compound] as the molecule, how does the MIC [1] read?
**A.** 0.5 µg/mL (≈ 0.541 µM)

**Q.** What about the MIC [2] of the same molecule?
**A.** 0.5 µg/mL (≈ 0.541 µM)

**Q.** What about the MIC [3] of the same molecule?
**A.** 0.5 µg/mL (≈ 0.541 µM)

**Q.** And the MIC [4]?
**A.** 0.5 µg/mL (≈ 0.541 µM)

**Q.** What about the MIC [5] of the same molecule?
**A.** 0.5 µg/mL (≈ 0.541 µM)

**Q.** What about the MIC [6] of the same molecule?
**A.** 0.5 µg/mL (≈ 0.541 µM)

**Q.** What about the MIC [7] of the same molecule?
**A.** 0.5 µg/mL (≈ 0.541 µM)

**Q.** And the minimal effective concentration [8]?
**A.** 50 µg/mL

**Q.** And the minimal effective concentration [9]?
**A.** 50 µg/mL

**Q.** And the minimal effective concentration [10]?
**A.** 25 µg/mL

**Q.** And the minimal effective concentration [11]?
**A.** 25 µg/mL

**Q.** What about the minimal effective concentration [12] of the same molecule?
**A.** 25 µg/mL

**Q.** What does the source list for `CC(Cc1ccc(O)c(O)c1)C(C)Cc1ccc(O)c(O)c1` (centres unmarked) [NDGA, nordihydroguaiaretic acid, reference compound]?
**A.** DPPH-reducing ability 20 min ([13]; 20 min): 83.0 ± 1.0%; DPPH-reducing ability 60 min ([13]; 60 min): 91.0 ± 1.7%

**Q.** With `CN(C)[C@@H]1C(O)=C(C(N)=O)C(=O)[C@@]2(O)C(O)=C3C(=O)c4c(O)cccc4[C@@](C)(O)[C@H]3C[C@@H]12` [TC, tetracycline, reference compound] as the molecule, how does the MIC [14] read?
**A.** 2.5 µg/mL (≈ 5.63 µM)

**Q.** What about the MIC [15] of the same molecule?
**A.** 0.31 µg/mL (≈ 0.698 µM)

**Q.** And the MIC [16]?
**A.** 3 µg/mL (≈ 6.75 µM)

**Q.** What about the MIC [17] of the same molecule?
**A.** 0.31 µg/mL (≈ 0.698 µM)

**Q.** And the MIC [18]?
**A.** 0.31 µg/mL (≈ 0.698 µM)

**Q.** And the MIC [19]?
**A.** 3 µg/mL (≈ 6.75 µM)

**Q.** What about the MIC [20] of the same molecule?
**A.** 2.5 µg/mL (≈ 5.63 µM)

**Q.** And the MIC [21]?
**A.** 0.63 µg/mL (≈ 1.42 µM)

**Q.** And the MIC [22]?
**A.** 3 µg/mL (≈ 6.75 µM)

**Q.** What about the MIC [23] of the same molecule?
**A.** 0.31 µg/mL (≈ 0.698 µM)

**Q.** What about the MIC [24] of the same molecule?
**A.** 6.13 µg/mL (≈ 13.8 µM)

**Q.** What about the MIC [25] of the same molecule?
**A.** 0.63 µg/mL (≈ 1.42 µM)

**Q.** And the MIC [26]?
**A.** 0.16 µg/mL (≈ 0.36 µM)

**Q.** What about the MIC [27] of the same molecule?
**A.** 0.31 µg/mL (≈ 0.698 µM)

**Q.** For `Cc1c(C)c2c(c(C)c1O)CCC(C)(C(=O)O)O2` (centres unmarked) [Trolox, 6-hydroxy-2,5,7,8-tetramethylchroman-2-carboxylic acid, reference compound], which “LP inhibition (%) ± SD” value [28] is on record?
**A.** 96 ± 2.0%

**Q.** Which MBEC [29] does the source give for gentamycin [reference compound] here?
**A.** 25 µg/mL

**Q.** What about the MBEC [30] of the same molecule?
**A.** 50 µg/mL

**Q.** And the MBEC [31]?
**A.** 50 µg/mL

**Q.** And the MBEC [32]?
**A.** 25 µg/mL

**Q.** What about the MBEC [33] of the same molecule?
**A.** 50 µg/mL

**Q.** And the MBEC [34]?
**A.** 12.5 µg/mL

**Q.** And the MBEC [35]?
**A.** 50 µg/mL

**Q.** What about the MBEC [36] of the same molecule?
**A.** 12.5 µg/mL

**Q.** And the MBEC [37]?
**A.** 25 µg/mL
